This note sets out measurements from patent US20040138301A1, “Chemical uncouplers for the treatment of obesity” (priority 2002, published 2004).

The experiment relates to FSK-4 cells. Description: Assay (IV): Glucose utilisation in FSK-4 cells. The experiment is classed as cell-based. Particulars: for EC50: read-out: FSK4 EC50; for Emax: read-out: FSK4 Emax (% of FCCP). On the procedure: Assay (IV): Glucose Utilisation in FSK-4 Cells
The assay measures indirectly the activity of the respiratory chain in FSK-4 cells by using D-(6-^3H(N))-glucose. The ^3H-proton will first be released in the TCA cyclus and transported to the respiratory chain where it will be incorporated into water. The water is thereafter separated from the D-(6-^3H(N))-glucose by evaporation. Finally, the radioactivity in the water is determined using a Topcounter.
FSK-4 cells obtained from ATCC (Maryland, USA), are cultured in growth medium (McCoy's medium with the following addition 100 units/ml penicillin and streptomycin and 10% FCS (fetal calf serum)) at 37° C. and 5% CO2. All media are obtained by Gibco (Life Technologies, Maryland, USA) where not otherwise mentioned.
At day zero the cells are harvested using trypsin-EDTA and washed in assay medium (MEM medium with the following addition 1× non-essential amino acids (M7145, 2 mM glutamin, 100 units/ml pencillin and streptomycin, 0.0075% sodium bicarbonate, 1 mM sodium pyrovate and 2% horse serum) using centrifugation. The cells are plated into single StripPlates wells (Corning B.V.Life Sciences, The Netherlands) that are placed into 24-well plates (Corning B.V.Life Sciences, The Netherlands) with a concentration of 1,5×10^4 cells/100 μl assay medium/well. The cells are then incubated at 37° C. and 5% CO2 overnight.
The next day the compounds to be tested are diluted to different concentrations in DMSO (Sigma, Missouri, USA) to 100 times final concentration. They are then diluted to a final concentration in assay medium containing 10 μCi/ml D-(6-^3H(N))-glucose (PerkinElmer Life Sciences Inc., Boston, USA). The medium is removed from the cells and 200 μl of the compound dilutions are added in duplicates. The cells are then incubated for another 24 hours at 37° C. and 5% CO2. Finally the cells are lysed by adding 50 μl 10% TCA (tri-chloroacetatic acid). 300 μl of sterile water is then added to the 24-wells that surrounds the StripPlate wells. The plate is sealed with Top-seal-tape (Packard, PerkinElmer Life Sciences Inc., Boston, USA) and the plate is incubated in a heating cupboard at 50° C. to equilibrium the radioactive water formed in the respiratory chain into the water in the 24-well plate by evaporate. The plates incubate for 8 hours where the heating cupboard is turned off. The top seal is removed when the samples have reached room temperature. One ml scintillation liquid (Packard Microscient, PerkinElmer Life Sciences Inc., Boston, USA) is added to all the samples and the radioactivity is determined using a Topcounter (Packard, PerkinElmer Life Sciences Inc., Boston, USA). Non-specific activity is determined by evaporating 200 μl of the dilution medium containing the D-(6-^3H(N))-glucose into 300 μl sterile water, and total radioactivity is determined by counting 5 μl assay medium with 10 μCi/ml D-(6-^3H(N))-glucose.
All calculations are done using GraphPad Prism 3.0 (GraphPad software, Inc.) From concentration-response curves the half maximal concentration (EC50) and maximal efficacy (Emax) are calculated using equation 1.
Y=Bottom+(Top−Bottom)/(1+10^((LogEc50-X)*slope))
X is the logarithm of the molar concentration of the test compound.
Y is the degree of stimulation caused by the compound measured as percentage of the basal stimulation.
The calculated EC50 value is then used to determine the concentrations used in a study where the Hill slope is calculated.
From the double logarithmic plot of the increase in glucose utilisation and the compound concentration the Hill slope is calculated accordingly to equation 2.
It is presumed, that the maximal increase in the glucose utilisation (as measured in the FSK-4 glucose utilisation assay) is limited by the capacity of the metabolism.

Where [1] appears, read: FSK-4 cells, glucose utilisation, 24 hours incubation.
[2] abbreviates: FSK-4 cells, maximal efficacy relative to FCCP.

Each structure is given as a SMILES string. Like-named read-outs stand apart in the source and are kept apart here.

For orientation: EC50 means the midpoint of the concentration-response curve. What is called Emax is the greatest response seen or fitted, relative to the assay's reference.

Regarding `CC(C)(C)c1cc(/C=C(\C#N)S(=O)(=O)c2ccc(Cl)cc2Cl)cc(C(C)(C)C)c1O` [Example 90, 3-(3,5-Di-Tert-Butyl-4-Hydroxy-Phenyl)-2-(2,4-Dichloro-Benzenesulfonyl)-Acrylonitrile], the EC50 under setting [1] is 600 nM.
On to `N#CC(C#N)=Cc1c(Br)[nH]c2ccccc12` [Example 97, 2-(2-Bromo-1H-Indol-3-Ylmethylene)Malononitrile], for which the EC50 under setting [1] was 1500 nM. Moreover, under setting [2], the Emax is 55%.
The like results for `N#CC(C#N)=Cc1c[nH]c2ccc([N+](=O)[O-])cc12` [Example 35, 2-(5-Nitro-1H-Indol-3-Ylmethylene)-Malononitrile] were, in that order, 5000 nM and 50%.
For `CC(C)(C)c1cc(Br)cc(C(=O)Nc2ccc(C#N)cc2Cl)c1O` [Example 94, 5-Bromo-3-Tert-Butyl-N-(2-Chloro-4-Cyanophenyl)-2-Hydroxybenzamide] the same measures were 100 nM and 90%.
As for `CC(C)(C)c1cc(/C=C(\C#N)S(=O)(=O)c2ccc(Cl)cc2)cc(C(C)(C)C)c1O` [Example 85, (E)-2-(4-Chloro-Benzenesulfonyl)-3-(3,5-Di-Tert-Butyl-4-Hydroxy-Phenyl)-Acrylonitrile], the EC50 under setting [1] is 800 nM.
Same read-out and setting: the figure for `CC(C)(C)c1cc(/C=C(\C#N)S(=O)(=O)c2ccc(F)cc2)cc(C(C)(C)C)c1O` [Example 86, (E)-3-(3,5-Di-Tert-Butyl-4-Hydroxy-Phenyl)-2-(4-Fluoro-Benzenesulfonyl)-Acrylonitrile] is 1000 nM.
Consider `Cc1[nH]c2c(Br)cccc2c1C=C(C#N)C#N` [Example 98, 2-(7-Bromo-2-Methyl-1H-Indol-3-Ylmethylene)Malononitrile], for which the EC50 under setting [1] came out at 6600 nM. For the same molecule, the Emax under setting [2] stood at 105%.
For `CC(C)(C)c1cc(/C=C(\C#N)S(C)(=O)=O)cc(C(C)(C)C)c1O` [Example 84, (E)-3-(3,5-Di-Tert-Butyl-4-Hydroxy-Phenyl)-2-Methanesulfonyl-Acrylonitrile], the EC50 under setting [1] was 1400 nM.
Take `CC(C)(C)c1cc(/C=C(\C#N)C(=O)Nc2ccc(Cl)cc2)cc(C(C)(C)C)c1O` [Example 83, N-(4-Chloro-Phenyl)-2-Cyano-3-(3,5-Di-Tert-Butyl-4-Hydroxy-Phenyl)-Acrylamide]: under setting [1], the EC50 was found to be 1100 nM. In addition, under setting [2], the maximal effect (Emax) turned out to be 120%.
Turning to `CCCCCCS(=O)(=O)/C(C#N)=C/c1cc(C(C)(C)C)c(O)c(C(C)(C)C)c1` [Example 91, 3-(3,5-Di-Tert-Butyl-4-Hydroxy-Phenyl)-2-(Hexane-1-Sulfonyl)-Acrylonitrile], under setting [1], the EC50 came to 3800 nM.
On the same count and under the same terms, the figure for `CC(C)(C)c1cc(/C=C(\C#N)S(=O)(=O)c2ccc(Br)cc2)cc(C(C)(C)C)c1O` [Example 92, 2-(4-Bromo-Benzenesulfonyl)-3-(3,5-Di-Tert-Butyl-4-Hydroxy-Phenyl)-Acrylonitrile] is 1000 nM.
In the case of `Cc1c(Br)cc(C(C)(C)C)c(O)c1C(=O)Nc1ccccc1C(F)(F)F` [Example 96, 3-Bromo-5-Tert-Butyl-6-Hydroxy-2-Methyl-N-(2-Trifluoromethylphenyl)Benzamide], the EC50 under setting [1] turned out to be 20000 nM. Besides, the Emax under setting [2] turned out to be 40%.
Turning to `CC(C)(C)c1cc(/C=C(\C#N)S(=O)(=O)c2cccc(Br)c2)cc(C(C)(C)C)c1O` [Example 93, 2-(3-Bromo-Benzenesulfonyl)-3-(3,5-Di-Tert-Butyl-4-Hydroxy-Phenyl)-Acrylonitrile], the concentration for a half-maximal effect (EC50) under setting [1] came out at 100 nM.
Still for that read-out and setting: the figure for `CC(C)(C)c1cc(/C=C(\C#N)S(=O)(=O)c2ccccc2)cc(C(C)(C)C)c1O` [Example 87, (E)-2-Benzenesulfonyl-3-(3,5-Di-Tert-Butyl-4-Hydroxy-Phenyl)-Acrylonitrile] is 700 nM; for `CC(C)(C)c1cc(/C=C(\C#N)S(=O)(=O)c2cc(Cl)ccc2Cl)cc(C(C)(C)C)c1O` [Example 89, 3-(3,5-Di-Tert-Butyl-4-Hydroxy-Phenyl)-2-(2,5-Dichloro-Benzenesulfonyl)-Acrylonitrile] it is 500 nM.
Turning to `Cc1[nH]c2ccc([N+](=O)[O-])cc2c1C=C(C#N)C#N` [Example 36, 2-(2-Methyl-5-Nitro-1H-Indol-3-Ylmethylene)-Malononitrile], the Emax was 76%. Moreover, the EC50 (24 h) was 6350 nM.
In the case of `CC(C)S(=O)(=O)/C(C#N)=C/c1cc(C(C)(C)C)c(O)c(C(C)(C)C)c1` [Example 88, (E)-3-(3,5-Di-Tert-Butyl-4-Hydroxy-Phenyl)-2-(Propane-2-Sulfonyl)-Acrylonitrile], under setting [1], the EC50 turned out to be 500 nM.
For `Cc1[nH]c2ccc(Br)cc2c1C=C(C#N)C#N` [Example 99, 2-(5-Bromo-2-Methyl-1H-Indol-3-Ylmethylene)Malononitrile], under setting [1], the EC50 was 1700 nM. In addition, under setting [2], the Emax worked out at 40%.
